{"source": "patent US8426394B2", "about": "“Progesterone antagonists such as CDB-4124 in the treatment of endometriosis, uterine fibroids, dysmenorrhea, breast cancer, etc” (Repros Therapeutics Inc., priority 2008, dated 2013)", "key": {"[1]": {"tested_on": "progesterone-induced endometrial proliferation in the rabbit uterus", "assay": "anti-McGinty and anti-Clauberg assays (biological activity in the rabbit uterus)", "type": "in vivo", "settings": "in comparison to RU 486 and CDB-2914", "text": "Also given in Table 1 are the relative biological activities of the same compounds in the rabbit uterus by the anti-McGinty and anti-Clauberg assays. Compound CDB-2914 (listed at the end of the Table) was used as the control or reference compound (rabbit Biological Activity=1.00) for these experiments because results of experiments using CDB-2914 have been published before (Hild-Petito et al., 1996; Passaro et al., 1997; Reel et al., 1998; Lamer et al., 2000). For the anti-McGinty test, immature female rabbits received a subcutaneous injection of 5 μg estradiol in 10% ethanol/sesame oil daily for 6 consecutive days. On day 7, animals underwent sterile abdominal surgery to ligate a 3-4 cm segment of both uterine horns. The test compound in appropriate solvent was injected intraluminally into the ligated segment of one uterine horn and vehicle alone into the other. […] Five micron sections stained with hematoxylin and cosin were evaluated microscopically for the degree of endometrial glandular proliferation. The percent inhibition of endometrial proliferation for each rabbit was calculated and the mean of the group of five animals recorded. […] Five micron sections stained with hematoxylin and eosin were evaluated microscopically for the degree of endometrial glandular proliferation. […]"}, "[2]": {"target": "T1, glucocorticoid receptor (rbGR) (Oryctolagus cuniculus, UniProt P59667)", "T1 construct": "cytosol containing PR or GR were prepared in TEGMD buffer; from tissue; host or cells: thymus of estradiol-primed immature rabbits (cytosol)", "T1 sequence (P59667 1-772)": "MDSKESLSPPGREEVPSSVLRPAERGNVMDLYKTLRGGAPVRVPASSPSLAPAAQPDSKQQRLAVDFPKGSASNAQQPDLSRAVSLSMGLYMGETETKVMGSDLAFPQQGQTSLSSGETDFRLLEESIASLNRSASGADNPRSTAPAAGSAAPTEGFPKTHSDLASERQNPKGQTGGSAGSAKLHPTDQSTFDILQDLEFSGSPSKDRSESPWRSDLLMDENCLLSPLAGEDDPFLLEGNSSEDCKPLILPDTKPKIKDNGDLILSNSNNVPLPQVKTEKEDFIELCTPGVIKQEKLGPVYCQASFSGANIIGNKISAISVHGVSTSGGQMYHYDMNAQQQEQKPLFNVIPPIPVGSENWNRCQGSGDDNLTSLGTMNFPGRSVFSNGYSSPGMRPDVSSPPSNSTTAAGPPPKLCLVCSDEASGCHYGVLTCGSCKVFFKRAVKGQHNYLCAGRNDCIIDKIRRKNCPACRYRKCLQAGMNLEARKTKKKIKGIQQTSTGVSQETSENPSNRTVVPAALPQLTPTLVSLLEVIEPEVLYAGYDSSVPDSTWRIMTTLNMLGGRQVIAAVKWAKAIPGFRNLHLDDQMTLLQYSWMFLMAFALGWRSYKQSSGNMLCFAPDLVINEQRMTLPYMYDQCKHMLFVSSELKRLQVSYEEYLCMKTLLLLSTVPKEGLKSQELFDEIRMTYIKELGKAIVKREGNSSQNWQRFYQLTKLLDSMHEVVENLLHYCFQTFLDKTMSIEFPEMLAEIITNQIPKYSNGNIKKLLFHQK", "assay": "Glucocorticoid receptor binding / anti-glucocorticoid receptor activity", "set-up": "species or system rabbit", "experimental": "Certain antiprogestins were tested in receptor-binding assays for their ability to bind rabbit progesterone receptor (rbPR) and glucocorticoid receptor (rbGR). […] For PR binding, the cytosol was incubated with 6 nM 1,2-[^3H]progesterone (50.0 Ci/mmole) and competitors were added at concentrations from 2 to 100 nM. For binding to GR, the cytosol was incubated with 6 nM 6,7-[^3H]-dexamethasone (40 Ci/mmol) and test compounds were added at concentrations from 20 to 100 nM. After overnight incubation at 4 C, bound and unbound [^3H] steroids were separated by addition of dextran-coated charcoal and centrifugation at 2100×g for 15 min at 4 C. Supernatants containing the [3H]-steroid receptor complexes were decanted into vials containing 4 ml Optifluor (Packard Instrument Co.), vortexed, equilibrated in a liquid scintillation counter for 30 minutes and then counted for 2 minutes. […] The standards for the PR and GR assays were unlabeled progesterone and dexamethasone, respectively."}, "[3]": {"tested_on": "endometrium", "assay": "Endometrial biopsies of women in the CDB-4124 treatment groups", "type": "in vivo, human", "experimental": "Endometrial biopsies were taken from 27 women exposed to 12.5 mg, 25 mg or 50 mg CDB-4124 for six months and 31 women with uterine fibroids exposed to 12.5 or 25 mg CDB-4124 for three months. Specimens were evaluated in a treatment blinded fashion utilizing the WHO diagnostic schema (Silverberg et al., tumors of the uterine corpus: epithelial tumors and related lesions. Tavassoli F A, Stratton M R, reditors. WHO Classification of Tumors: Pathology and Genetics of Tumors of the Breast and Female Genital Organs. Lyon, France: IARC Press, 2003: 221-232). A consensus primary end point result was determined for each specimen by majority (two or more of three pathologists agree), or in the event of all pathologists disagreeing the “worst” diagnosis of the three was assigned. Additional findings were recorded using a structured data collection instrument. All raw data was provided to the reviewing pathologists, who undertook an independent analysis that was the basis for their conclusions."}, "[4]": {"assay": "Serum corticosterone in rats", "settings": "progesterone, CDB-4124 and RU-486 groups compared"}}, "data": [{"smiles": "COCC(=O)[C@@]1(OC(C)=O)CC[C@H]2[C@@H]3CCC4=CC(=O)CCC4=C3[C@@H](c3ccc(N(C)C)cc3)C[C@@]21C", "note": "[CDB-4124, 21-methoxy-17α-acetoxy-11β-(4 N,N-dimethylaminophenyl)-19-norpregna-4,9-diene-3,20-dione]", "values": [{"measurement": "antiprogestin activity in the rabbit uterus", "setting": "[1]", "result": "strong"}, {"measurement": "anti-glucocorticoid receptor activity / glucocorticoid receptor binding", "setting": "[2]", "result": "minimal"}, {"measurement": "consensus primary diagnosis of endometrial biopsy (WHO schema)", "setting": "[3]; 12.5, 25 or 50 mg for six months, 12.5 or 25 mg for three months", "result": "benign endometrium"}, {"measurement": "blood vessel wall thickening and latticed capillary patterns", "setting": "[3]; endometrial biopsies", "result": "did not induce"}, {"measurement": "most prominent secondary finding within the benign category", "setting": "[3]; endometrial biopsies, more prominent at lowest doses", "result": "cystic dilation of glands"}, {"measurement": "endometrial proliferation", "setting": "[3]; every concentration tested (12.5, 25, 50 mg)", "result": "suppressed"}, {"measurement": "differences in serum corticosterone between treatment groups", "setting": "[4]", "result": "No differences"}]}]}
